Measured values as given in the NIST ThermoML archive (doi:10.1021/je100231g).
Where “and” joins values, the source holds several entries; their conditions need not be identical. Equal entries are not always repeated. Structures can show the parent of a compound that is named as a salt.

Conditions: Liquid, Gas Saturation Method

CCOC(=O)CCCC(=O)OCC [diethyl glutarate]
Conditions	vapor or sublimation pressure [kPa]
298.3 K	0.00352
303.4 K	0.00575
308.6 K	0.00877
311.2 K	0.0108
313.5 K	0.0134
316.2 K	0.0161
318.2 K	0.0185
318.5 K	0.02
322.2 K	0.0254
323.3 K	0.0277
328.2 K	0.0405
333.2 K	0.0601
338.2 K	0.0874
343.2 K	0.1236
347.9 K	0.1725

CCCCOC(=O)CCCCC(=O)OCCCC [dibutyl hexanedioate]
Conditions	vapor or sublimation pressure [kPa]
313.2 K	0.00018
318.2 K	0.0003
323.2 K	0.00048
328.2 K	0.00079
333.3 K	0.00127
338.4 K	0.00202
343.1 K	0.00304
348.2 K	0.00467
353.2 K	0.00705
358.2 K	0.0102
363.2 K	0.0143
368.2 K	0.0201
373.2 K	0.0285

CCCCOC(=O)CCC(=O)OCCCC [butanedioic acid, dibutyl ester]
Conditions	vapor or sublimation pressure [kPa]
313.3 K	0.00132
316.2 K	0.0017
318.3 K	0.00205
320.2 K	0.00248
323.2 K	0.00325
325.2 K	0.00383
328.2 K	0.00489
330.2 K	0.00577
333.2 K	0.00743
335.4 K	0.00877
338.2 K	0.011
340.1 K	0.0121
343.2 K	0.0164
346.2 K	0.0197
349.2 K	0.0247
352.1 K	0.0319
355.1 K	0.0387
358.2 K	0.0473

CCCOC(=O)CCCCC(=O)OCCC [dipropyl hexanedioate]
Conditions	vapor or sublimation pressure [kPa]
318.8 K	0.00173
321.7 K	0.00222
323.5 K	0.0026
327.4 K	0.00367
333.2 K	0.00602
336.1 K	0.00765
339.1 K	0.00972
342.1 K	0.0122
345.5 K	0.0152
348.3 K	0.0196
351.5 K	0.0253
354.2 K	0.0306
357.1 K	0.0373
361.2 K	0.0485
365.3 K	0.0639

CCOC(=O)CC(=O)OCC [diethyl 1,3-propanedioate]
Conditions	vapor or sublimation pressure [kPa]
283.8 K	0.00689
286.2 K	0.00858
289.2 K	0.0115
292.3 K	0.015
295.2 K	0.0193
298.2 K	0.0251
301.3 K	0.0321
304.2 K	0.0405
304.7 K	0.0428
307.3 K	0.0513
310.2 K	0.0646
313.3 K	0.0814
316.3 K	0.1005

CCCCOC(=O)CCCC(=O)OCCCC [dibutyl pentanedioate]
Conditions	vapor or sublimation pressure
317.5 K	0.00064 kPa
318.3 K	0.0007 kPa
322.4 K	0.00103 kPa
323.4 K	0.00114 kPa and 0.00113 kPa
325.4 K	0.00132 kPa
326.5 K	0.00145 kPa
328.4 K	0.00179 kPa and 0.00173 kPa
330.6 K	0.0021 kPa
331.5 K	0.00229 kPa
333.5 K	0.00273 kPa
334.6 K	0.00306 kPa
334.7 K	0.00298 kPa
337.6 K	0.00375 kPa
338.6 K	0.00404 kPa
340.5 K	0.00475 kPa
343.3 K	0.006 kPa
346.6 K	0.00782 kPa
349.6 K	0.00973 kPa
350.3 K	0.0103 kPa
352.5 K	0.0121 kPa
354.7 K	0.0145 kPa
357.5 K	0.0177 kPa
360.6 K	0.0213 kPa
363.4 K	0.026 kPa
366.4 K	0.0318 kPa
369.5 K	0.0403 kPa

CCCCOC(=O)CC(=O)OCCCC [dibutyl 1,3-propanedioate]
Conditions	vapor or sublimation pressure [kPa]
303.2 K	0.00138
308.3 K	0.00223
313.3 K	0.00366
318.3 K	0.00557
323.2 K	0.00878
325.1 K	0.0101
328.2 K	0.0131
330.2 K	0.0152
333.2 K	0.0193
335.2 K	0.0217
338.2 K	0.0267
340.2 K	0.0325
343.2 K	0.0407
345.2 K	0.0454
349.1 K	0.0586
353.1 K	0.0788
357.2 K	0.1022
361.2 K	0.1343
365.2 K	0.1672
369.2 K	0.2174

CCOC(=O)C(=O)OCC [diethyl ethanedioate]
Conditions	vapor or sublimation pressure [kPa]
283.6 K	0.0164
288.5 K	0.0256
293.4 K	0.0392
298.3 K	0.0571
303.3 K	0.0814
308.4 K	0.1254
311.3 K	0.1509
313.5 K	0.175
316.4 K	0.2075
318.3 K	0.2434
321.4 K	0.2972
325.4 K	0.3834
329.5 K	0.4832
333.5 K	0.6275

CCCOC(=O)CCCC(=O)OCCC [pentanedioic acid, dipropyl ester]
Conditions	vapor or sublimation pressure [kPa]
313.3 K	0.00276
316.4 K	0.00359
318.5 K	0.00444
319.4 K	0.00478
322.5 K	0.00609
323.5 K	0.00637
325.4 K	0.00778
328.5 K	0.01
329.5 K	0.0109
331.4 K	0.0128
333.6 K	0.0149
336.4 K	0.0184
338.5 K	0.022
341.4 K	0.0271
343.6 K	0.031
346.4 K	0.0385
348.4 K	0.0432
350.5 K	0.0504
353.5 K	0.0628

CCCOC(=O)CC(=O)OCCC [dipropyl 1,3-propanedioate]
Conditions	vapor or sublimation pressure [kPa]
293.3 K	0.00356
298.3 K	0.00582
299.4 K	0.00652
303.2 K	0.00897
307.3 K	0.0129
308.2 K	0.0135
311.3 K	0.0178
313.3 K	0.0199
315.3 K	0.0245
318.5 K	0.0296
319.4 K	0.0332
323.4 K	0.0426
328.5 K	0.0622
333.5 K	0.089
336.4 K	0.1095
338.5 K	0.13

CCCOC(=O)C(=O)OCCC [di-n-propyl oxalate]
Conditions	vapor or sublimation pressure [kPa]
293.6 K	0.00943
298.5 K	0.0139
301.4 K	0.0175
306.4 K	0.0255
308.4 K	0.0304
311.4 K	0.0362
313.4 K	0.0413
316.3 K	0.052
318.6 K	0.0626
321.4 K	0.0741
323.3 K	0.0903
326.3 K	0.1085
328.3 K	0.1248
330.4 K	0.1423
333.5 K	0.1801

CCOC(=O)CCC(=O)OCC [diethyl butanedioate]
Conditions	vapor or sublimation pressure
290.2 K	0.00495 kPa
290.5 K	0.00504 kPa
293.5 K	0.00678 kPa
296.4 K	0.00861 kPa
301.4 K	0.0134 kPa
306.4 K	0.0208 kPa
311.4 K	0.0313 kPa
313.4 K	0.035 kPa
316.4 K	0.0455 kPa
318.4 K	0.0503 kPa
321.4 K	0.0661 kPa
323.5 K	0.0777 kPa
326.5 K	0.0941 kPa and 0.0963 kPa
328.5 K	0.1125 kPa
331.4 K	0.133 kPa
331.6 K	0.1351 kPa
333.6 K	0.1517 kPa
336.5 K	0.1864 kPa
339.4 K	0.2221 kPa
342.4 K	0.2658 kPa
345.5 K	0.3425 kPa

CCCOC(=O)CCC(=O)OCCC [butanedioic acid, dipropyl ester]
Conditions	vapor or sublimation pressure [kPa]
308.3 K	0.00487
312.4 K	0.00685
316.4 K	0.00936
318.5 K	0.0111
321.5 K	0.0139
323.5 K	0.0163
326.4 K	0.0209
328.6 K	0.0252
331.3 K	0.0303
333.4 K	0.0362
336.5 K	0.0443
338.5 K	0.0509
341.5 K	0.0625
343.5 K	0.0723

CCCCOC(=O)C(=O)OCCCC [di-n-butyl oxalate]
Conditions	vapor or sublimation pressure
291.4 K	0.00087 kPa
293.4 K	0.0011 kPa
295.7 K	0.00143 kPa
298.8 K	0.00182 kPa
300.4 K	0.00209 kPa
302.3 K	0.00249 kPa
302.8 K	0.00276 kPa
303.3 K	0.00283 kPa
305.2 K	0.0034 kPa
305.3 K	0.00334 kPa
308.2 K	0.00446 kPa
308.3 K	0.00433 kPa
308.4 K	0.00448 kPa
311.3 K	0.00565 kPa
312.3 K	0.00624 kPa
313.2 K	0.0066 kPa
314.3 K	0.00737 kPa
315.5 K	0.00855 kPa
317.4 K	0.00937 kPa
317.8 K	0.0105 kPa
318.2 K	0.0105 kPa
319.9 K	0.0124 kPa
320.2 K	0.0115 kPa
322.5 K	0.0149 kPa
323.2 K	0.0159 kPa
323.4 K	0.0151 kPa
325.3 K	0.0176 kPa and 0.018 kPa
326.4 K	0.0193 kPa
327.5 K	0.0215 kPa
328.2 K	0.0223 kPa
328.5 K	0.0226 kPa
330.3 K	0.0254 kPa
331.1 K	0.0289 kPa
331.4 K	0.0292 kPa
333.2 K	0.0339 kPa
333.5 K	0.0346 kPa and 0.0333 kPa
335.2 K	0.0375 kPa
336.3 K	0.0414 kPa
337 K	0.0434 kPa
338.1 K	0.0475 kPa
338.6 K	0.0475 kPa
340.2 K	0.0543 kPa
340.8 K	0.0586 kPa
341.4 K	0.0568 kPa
343.2 K	0.0651 kPa
343.4 K	0.0693 kPa
343.5 K	0.0645 kPa
345.2 K	0.0741 kPa
348.3 K	0.0962 kPa
351.2 K	0.1137 kPa
353.1 K	0.1332 kPa
358.2 K	0.1811 kPa

CCOC(=O)CCCCC(=O)OCC [diethyl hexanedioate]
Conditions	vapor or sublimation pressure [kPa]
303.5 K	0.0022
308.2 K	0.00343
313.3 K	0.00523
318.2 K	0.00793
323.1 K	0.0118
328.2 K	0.0185
329.6 K	0.0209
333.2 K	0.0273
335.2 K	0.0323
338.2 K	0.039
340.2 K	0.0462
343.2 K	0.0561
346.2 K	0.0698
349.1 K	0.0851
352.2 K	0.1061
